Reference: US9029414B2, “Triterpenoid compounds and methods of use thereof” (Biotechnology Research Corporation, priority 2008, dated 2015)

Assays:
[1] = system: lymphocyte infiltrates in spinal cord of EAE mice; assay: Hematoxylin and eosin staining of spinal cords of EAE mice; type: in vivo; conditions: DA001-treated vs vehicle-treated EAE mice
Protocol: On day 21, animals were anesthetized intraperitoneally with 4% (w/v) chloral hydrate (BDH) in 0.9% (w/v) saline (USB). Once the anesthetics has set it, the animals were then perfused transcardially (Gilson) with 50 mL of 37° C., 0.005% (w/v) heparinized (Sigma) saline (USB), followed by 80 mL of ice-cold, 4% (w/v) paraformaldehyde (Sigma) in Dulbecco's Phosphate Buffered Saline (GIBCO). The perfused spinal cords were then further fixed in 4% (w/v) paraformaldehyde (Sigma) overnight at 4° C. After overnight incubation, the samples were prepared in an automated tissue processor for dehydration, clearing and paraffin infiltration (Leica EG1150H) followed by paraffin embedding (Leica RM2255). After overnight incubation at room temperature, the blocks were sectioned at 6 μm thickness on microtome (Leica 1250) and laid on Histobond slides (Merienfeld). The slides were incubated at 60 C oven for 24 h before being stained. On the day of staining, the slides were rehydrated in a series of EtOH solutions. The rehydrated slides were then submerged in hematoxyline solution for 20 min at room temperature. The slides were differentiated in acidic solution before being fixed in a series of EtOH solutions then eosin at 20 min in room temperature. […]

[2] = biological target: DP receptor (Homo sapiens, UniProt Q13258); assay: Radioligand competition binding assay, DP; conditions: target PGD, compound at 10 μM in duplicate, read-out: % inhibition of control specific binding
Protocol: To determine the targets of DA compounds, the compound was assessed in binding assays for the family of prostanoid receptors. Both compounds were tested at a single concentration (10 μM) in duplicate. DA001 and DA021 inhibit the ligand binding of prostaglandin E2 receptors EP1, EP2 and EP4 and moderately to prostaglandin (PGF) to its receptor (FP), but not prostaglandin I (PGI2), thromoboxane A and prostaglandin D2 to their receptors.

[3] = system: hippocampal neurons; assay: Hippocampal neuron survival assay against NMDA excitotoxicity (LDH); type: cell-based, Sprague-Dawley rats; conditions: 30 μM 24 hrs, NMDA 10-200 μM 20 min
Protocol: Hippocampal neurons/cortical neurons were prepared from embryonic day 18 Sprague-Dawley rats. After the cortices had been removed from the brain, isolated cells were plated onto Poly d-Lysine (PDL) (P0899, Sigma)-coated 48 well plates (150687, NUNC) at a density of 2×10^5 cell per well using Neurobasal Medium (NB) (21103-049, Gibco) with B27 supplement (17504-044, Gibco), penicillin/streptomycin (15140, Gibco) and 1 mM L-glutamine (25030, Gibco). The cell culture was incubated at 37° C. in a humidified atmosphere of 5% CO2 in air. Medium was changed to growth medium (Neurobasal Medium with penicillin/streptomycin and B27 supplement) after 3 hours. Half medium was changed with growth medium every 2-3 days to maintain the cells until day 10 in vitro (DIV 10). Serial dilutions of samples were prepared in growth medium and DMSO was used as vehicle control. For pre-treating assay, half of the medium was removed from wells, and equal amount of diluted samples were replaced. Cells were then incubated for 2 hours at 37° C. in a humidified atmosphere of 5% CO2 in air. […] Afterwards, cells were incubated in growth medium for 18-24 hours and detected with Cytotoxicity Detection Kit (1644793, Roche).
Hippocampal neurons were treated with DA021 and subsequently subjected to varying concentrations of NMDA. […] LDH release into the medium was then measured.

DP receptor, sequence (Q13258 whole entry): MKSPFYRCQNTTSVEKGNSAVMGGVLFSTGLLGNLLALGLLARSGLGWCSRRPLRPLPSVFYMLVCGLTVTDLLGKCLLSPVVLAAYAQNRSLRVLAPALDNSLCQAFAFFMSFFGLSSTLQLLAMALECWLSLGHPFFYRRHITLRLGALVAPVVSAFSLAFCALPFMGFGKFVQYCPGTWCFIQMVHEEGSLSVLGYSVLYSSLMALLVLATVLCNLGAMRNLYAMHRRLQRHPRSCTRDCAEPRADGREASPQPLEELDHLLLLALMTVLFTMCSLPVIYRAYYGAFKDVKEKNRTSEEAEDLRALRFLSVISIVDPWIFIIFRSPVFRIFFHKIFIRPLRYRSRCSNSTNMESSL

Structure (SMILES) | lymphocytes surrounding axons / lymphocyte infiltration in spinal cord (H&E) [1] | inhibition at 10 µM [2] [%] | protection from NMDA-induced excitotoxicity (LDH release) [3]
C=C(C)[C@@H]1CC[C@]2(C(=O)O)CC[C@]3(C)C(CC[C@@H]4[C@@]5(C)CC[C@H](O[C@@H]6OC[C@H](O)[C@H](O)[C@H]6O[C@@H]6O[C@@H](C)[C@H](O)[C@@H](O)[C@H]6O)[C@@](C)(CO)[C@@H]5CC[C@]43C)[C@@H]12 (stereo partly drawn) [DA001, 3-O-[α-L-rhamnopyranosyl-(1→2)-α-L-arabinopyranosyl]-3,23-dihydroxy-20(29)-lupen-28-oic acid] | dramatically reduced | – | –
C=C(C)[C@@H]1CC[C@]2(/C=N/O)CC[C@]3(C)C(CCC4[C@@]5(C)CCC(=O)[C@@](C)(CO)[C@@H]5CC[C@]43C)C12 (stereo partly drawn) [DA021] | – | 0 | protects neurons against differing concentrations of NDMA
